Values of other authors in patent US20230329971A1, “MEDICINAL PRODUCT COMPRISING A FLEXIBLE PLASTIC BAG AND AN AQUEOUS, READY-TO-USE SOLUTION OF MIDAZOLAM” (B. Braun Melsungen AG, priority 2020, published 2023).

Conditions: in aqueous 5% dextrose solution or aqueous 0.9% sodium chloride solution

## Cc1ncc2n1-c1ccc(Cl)cc1C(c1ccccc1F)=NC2.Cl [midazolam hydrochloride, 8-chloro-6-(2-fluorophenyl)-1-methyl-4H-imidazo [1,5-a] [1, 4] benzodiazepine hydrochloride]
  stable over: 30 days
